{"source": "paper PMC11724075", "about": "“Small-molecule-induced ERBB4 activation to treat heart failure” (Nature Communications, 2025)", "key": {"HCFs": {"test_system": "HCFs", "assay": "Bulk RNA sequencing and GSEA of human cardiac fibroblasts", "type": "cell-based", "details": "EF-1 32 µM, 16 h, log2-fold change >0, P adj <0.05", "procedure": "iAMs were seeded at a density of 6 ×10^6 cells/mL in differentiation medium in 75-cm^2 cell culture flasks (Greiner Bio-One, 658175) and incubated for 9 days (d0 = day of seeding). HCF were seeded at a density of 3 × 10^6 cells/mL in fibroblast medium in 75-cm^2 cell culture flasks. […] Next, cells were lysed using 350 µL buffer RLT (Qiagen) supplemented with β-mercaptoethanol (100:1; Merck, 444203). Total RNA was isolated using the RNeasy Micro Kit (Qiagen, 74104) according to the manufacturer’s protocol, with an extra step of DNase digestion. The concentration and quality of RNA were determined using a Qubit fluorometer (Thermo Fisher Scientific) and 2100 Agilent BioAnalyzer (Agilent Technologies), respectively. Samples with an RNA integrity number >7 were used for library preparation. Sequencing libraries were prepared by Genewiz/Azenta (Leipzig) on cDNA prepared from polyadenylated mRNA. Libraries were sequenced using a NovaSeq 6000 (Illumina) with a read length of 2 ×150 bp.\nGene expression was quantified at the transcript level using Salmon (v1.10.0)[60], with the validatMappings and -gcBias parameters switched on, to the Rnor_6.0 or GRCh38 transcriptome. […] Functional enrichment of DEGs was determined using a hypergeometric test against the Gene Ontology database by using the ClueGO (v2.5.7)[64] module of Cytoscape (v3.9.1)[65] with Benjamini–Hochberg adjusted (FDR) P < 0.05. […]"}, "iAMs": {"test_system": "iAMs", "assay": "WST-1 cell viability assay in H2O2-treated iAMs", "type": "cell-based, rat", "design": "In vitro cell viability assay with WST-1: unit not given here", "procedure": "Following the transfer of 150 µL of culture medium for the ToxiLight assay, 7 µL of WST-1 reagent (Merck, 5015944001) was added directly to the remaining cell culture medium in each well. The cells were incubated at 37 °C for an additional 4 h. After incubation, the absorbance of the samples was measured at 450 nm (690 nm was used as reference wavelength and subtracted) using a microplate reader (Epoch). […]"}, "Erbb4-null mice": {"test_system": "Erbb4-null mice", "assay": "Acute high-dose DOX-induced cardiotoxicity, cTnI ELISA, female Erbb4-null mice", "type": "in vivo, mouse", "design": "In vivo DOX experiment in male+female Erbb4-null mice with EF-1 (cTnI): unit not given here", "procedure": "DOX (20 mg/kg; Pfizer, 4222) was administered intraperitoneally once on day 4 to induce cardiotoxicity. On day 7, mice were euthanized, serum samples were collected via the retrobulbar sinus and hearts were excised.\nFloxed Erbb4 mice (Erbb4^f/f; C57BL/6N; 129-Erbb4tm1Fej/Mmucd, MMRRC, #010439-UCD) were crossed with CAGGCre-ER^TM mice (Jackson Laboratory, 004682) containing the Tg(CAG-cre/Esr1*)5Amc transgene that expresses Cre recombinase under the control of a chicken beta actin promoter/enhancer coupled to the human cytomegalovirus immediate-early gene enhancer, resulting in expression of tamoxifen-inducible Cre-ERT in most cell types. To induce Cre recombinase-mediated deletion of Erbb4, eleven-week-old female and male iCAGGCre-ER^TM/Erbb4^f/f mice were intraperitoneally injected with tamoxifen (Merck, T5648; 10 mg/kg; in corn oil) daily for 5 consecutive days.\nSerum samples were centrifuged for 15 min (1000 × g) at 4 °C and analyzed using a mouse cardiac Troponin I Type 3 ELISA kit (Novus Biologicals, NBP3–00456), according to the manufacturer’s instructions. Briefly, a 96-well microplate was coated with an anti-mouse TNNI3/cTnI primary antibody (Capture Antibody Solution). Standard solution or samples (100 μL) were added to the plate and incubated for 90 min at 37 °C. […]"}}, "note": "Several values for one entry are separate records, joined by “and”; a condition that tells them apart may be missing. Equal entries are not always repeated."}
{"smiles": "O=C(NC1CC1)C(Sc1nc2ccccc2c(=O)n1C1CCCC1)c1ccccc1", "note": "(stereo not drawn) [EF-1]", "values": [{"measurement": "number of significantly downregulated genes compared to Veh", "setting": "HCFs", "result": 507}, {"measurement": "number of significantly upregulated genes compared to Veh", "setting": "HCFs", "result": 336}, {"measurement": "cell viability, WST-1 absorbance (in words)", "setting": "iAMs; 100 µM H2O2, pre-treatment with EF-1", "result": "significantly increased cell viability"}, {"measurement": "In vitro cell viability assay with WST-1", "setting": "iAMs; H2O2/EF-1, individual replicates", "result": "1.268 and 0.9224 and 0.7959 and 0.7633 and 0.6939 and 1.2898 and 0.9164 and 0.8058 and 0.7767 and 0.7185 and 1.306 and 0.9585 and 0.8456 and 0.8168 and 0.7703 and 1.242 and 0.9643 and 0.8304 and 0.8393 and 0.7321"}, {"measurement": "effect on DOX-induced increase in cTnI plasma levels (in words)", "setting": "Erbb4-null mice; female Erbb4-null mice", "result": "did not prevent the increase in cTnI plasma levels"}, {"measurement": "In vivo DOX experiment in male+female Erbb4-null mice with EF-1 (cTnI)", "setting": "Erbb4-null mice; male+female Erbb4-null mice, DOX/EF-1 group, individual animals, Fig. 6d", "result": "3.884 and 54.574 and 87.9141 and 7.084 and 54.129 and 15.8453 and 39.5225 and 62.9332"}]}
